Measured values from patent US11873299B1, “7-(4-((5-(4-chlorobenzylideneamino)-2-thioxo-1,3,4-thiadiazol-3(2H)-yl)methyl)iperazin-1-yl)-1-cyclopropyl-6-fluoro-4-oxo-1,4-dihydroquinoline-3-carboxylic acid as an anti-inflammatory compound” (KING FAISAL UNIVERSITY, priority 2023, dated 2024).

Legend:
[1] = biological target: Bovine Serum Albumin (BSA) (Bos taurus, UniProt P02769); test: Bovine Serum Albumin Assay (BSA), inhibition of protein denaturation; format: biochemical; details: dilutions of 20, 40, 60, 80, and 100 μg/mL; 0.4% w/v BSA, pH 6.4; 72° C. for 10 minutes; turbidity at 660 nm
Sequence of Bovine Serum Albumin (BSA) (P02769 25-607): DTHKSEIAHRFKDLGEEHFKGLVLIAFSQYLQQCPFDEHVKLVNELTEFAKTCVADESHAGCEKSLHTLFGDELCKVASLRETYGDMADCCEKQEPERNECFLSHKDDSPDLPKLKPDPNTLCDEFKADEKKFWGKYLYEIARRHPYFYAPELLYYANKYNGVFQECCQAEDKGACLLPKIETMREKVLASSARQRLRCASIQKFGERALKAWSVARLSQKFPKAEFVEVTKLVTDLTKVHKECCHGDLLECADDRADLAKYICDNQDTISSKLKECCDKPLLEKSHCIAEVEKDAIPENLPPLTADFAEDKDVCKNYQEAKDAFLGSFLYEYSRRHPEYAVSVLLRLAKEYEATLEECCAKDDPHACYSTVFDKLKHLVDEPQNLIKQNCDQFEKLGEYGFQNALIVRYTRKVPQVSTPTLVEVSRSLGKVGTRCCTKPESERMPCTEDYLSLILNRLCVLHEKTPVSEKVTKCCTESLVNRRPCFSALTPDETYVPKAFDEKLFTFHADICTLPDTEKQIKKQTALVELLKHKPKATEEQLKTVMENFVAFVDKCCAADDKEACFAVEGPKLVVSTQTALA
Method: Bovine Serum Albumin Assay (BSA)
In vitro-inflammatory activities of the tested samples were determined using a modified method of the BSA assay reported by Williams et al. BSA solution (0.4%, w/v) was prepared in Tris Buffered Saline. The pH was adjusted to 6.4 with glacial acetic acid. Different dilutions of 20, 40, 60, 80, and 100 μg/mL of 7-(4-((5-(4-chlorobenzylideneamino)-2-thioxo-1,3,4-thiadiazol-3(2H)-yl)methyl)piperazin-1-yl)-1-cyclopropyl-6-fluoro-4-oxo-1,4-dihydroquinoline-3-carboxylic acid (IV) the stock solutions were added to test tubes containing 1 mL of 0.4%, w/v BSA buffer solution. Both negative (solvent) and positive (aspirin) controls were assayed in a similar manner. The solutions were then heated in a water bath at 72° C. for 10 minutes, and cooled for 20 minutes under laboratory conditions. The turbidity of the solutions (level of protein precipitation) was measured at 660 nm in Spectrophotometer (V-770 UV-Visible/NIR Spectrophotometer). The percentage inhibition of precipitation (protein denaturation) was determined relative to the negative control using the following equation:
[formula] % Anti-Denaturation Activity=% Inhibition of Protein Denaturation=% Anti-inflammatory Activity

O=C(O)c1cn(C2CC2)c2cc(N3CCN(Cn4nc(/N=C/c5ccc(Cl)cc5)sc4=S)CC3)c(F)cc2c1=O [IV, 7-(4-((5-(4-chlorobenzylideneamino)-2-thioxo-1,3,4-thiadiazol-3(2H)-yl)methyl)piperazin-1-yl)-1-cyclopropyl-6-fluoro-4-oxo-1,4-dihydroquinoline-3-carboxylic acid]
in vitro anti-inflammatory activity (inhibition of protein denaturation) [1]: considerable anti-inflammatory effect
melting point: 221 to 223 °C
